Experimental data: patent EP0610377B1, “TRI-SUBSTITUTED TETRAHYDROFURAN ANTIFUNGALS” (SCHERING CORPORATION, priority 1991, dated 1993)

How the values were obtained:
Assay type in all cases: in vivo
Aspergillus flavus [1] = experiment: Aspergillus flavus pulmonary infection model in compromised mice, oral treatment; details: for %SURVIVAL / %ANIMALS NEG / CFU-GEO MEAN OF SURVIVORS: 18 days post infection; for %SURVIVAL: compromised CF-1 mice; for %ANIMALS NEG: negative = <10 colonies; for CFU-GEO MEAN OF SURVIVORS: geometric mean of the logarithm of CFU remaining in the lung
C. albicans C-43 = experiment: Candida systemic model in CF1 mice infected IV with C. albicans C-43, oral treatment; details: for %SURVIVAL: day 4 post-infection; for CFUs (GM): day 4, geometric mean of the logarithms of CFU remaining in the kidneys (dead mice counted as 10^9)
Method: The compounds of Examples 23-26 and itraconazole, fluconazole, and saperconazole were tested for in vivo oral antifungal activity in a Candida systemic model using CF1 male mice , average weight 20 g, Harlan Sprague Dawley, Inc., Indianapolis, Ind. infected by IV injection into the tail vein of C. albicans C-43 (5 million CFUs). […] Oral efficacy was measured after four (4) days by percent survival and by the number of organisms remaining in the kidneys i.e., the Colony Forming Units (CFUs). The mice were sacrificed and the kidneys of individual mice were homogenized in sterile saline, diluted and spread onto Mycosel agar. Colony counts were determined after 48 hours at 37°C. For calculation of geometric means, mice that died during the experiment were considered to have 10^9 CFUs/kidneys (based on numerous previous experiments).

Aspergillus flavus [2] = experiment: Aspergillus flavus pulmonary infection model in compromised mice, oral treatment; details: for %ANIMALS NEG / %SURVIVAL: 18 days post infection; for %ANIMALS NEG: negative = <10 colonies; for %SURVIVAL: compromised CF-1 mice
Source text: The in vivo oral antifungal activity of the compounds of Example 23-26 were compared to those of itraconazole, fluconazole and saperconazole in an Aspergillus pulmonary infection model in mice. The procedure of David Loebenberg et al. entitled "Sch 42427, The Active Enantiomer of Antifungal agent Sch 39304: In Vitro and In Vivo Activity" Antimicrobial Agents and Chemotherapy (1992), 36 498-501 was used. The Aspergillus flavus pulmonary model was run in the following manner Male, CF-1 mice weighing 20 grams were compromised with cortisone acetate (100 mg/kg), administered subcutaneously, once daily for 3 days. In addition, to prevent bacterial disease, tetracycline HCL (300 mg/1) was added to the drinking water and given ad libitum. On day 2 of compromising, mice were infected in an inhalation chamber, first described by Piggot and Emmons in 1960 and modified by us. The chamber is a 1 liter pyrex, thick-walled flask with 8 tubular side-arms that extend into the flask. Each side-arm is a pyrex tube of 14 cm length, constricted to a 1 cm opening inside the flask. The bottom of the flask was covered with a malt extract agar medium on which a sporulating culture of A. flavus ATCC 24133 was grown for 13 days at room temperature. The top of the flask was closed with a #10 stopper through which passed a glass tube attached by rubber tubing to a 60 mL syringe. Mice were placed in each of the side arms and pushed to the bottoms so that their nares extended beyond the open end of the tube and over the agar. Cotton plugs were then inserted behind the mice to hold them in place. By pumping the 60 mL syringe twice, air was forced over the culture and produced a cloud of spores. Mice were exposed to the spore cloud for one minute. Within 15-30 minutes after exposure, a number of mice were sacrificed and lung tissue samples homogenized for culture to determine the number of inhaled conidia. Oral treatment began 24 h post-infection with doses of 5 to 250 mg of drug/kg in ethanol; vehicle (115 ml of Emulphor EL-719P, GAF, Wayne, NJ; and 5 ml of 20% w/v lactic acid per liter of water), 10:90 v/v, once daily for 4 days.
The procedure of Example 31 was used to compare the in vivo oral antifungal activity of (±)-5R/S-(cis)-4-[4-[4-[4-[[5-(2,4-difluorophenyl)-5-(1H-1,2,4-triazol-1-ylmethyl) tetrahydrofuran-3-yl]methoxy-phenyl-1-piperazinyl]phenyl]-2,4-dihydro-2[(R/S)-(1-methylpropyl)]-3H-1,2,4-triazol-3-one with (±)-2R/S-(cis)-1-[4-[[2-(2,4-difluorophenyl)-2-(1H-1,2,4-triazol-1-ylmethyl) tetrahydro-4-furanyl]methoxy]phenyl]-4-(1-methylethyl)piperazine of Example 68 of USP 5,039,676 in an Aspergillus pulmonary infection model described in Example 31. […]
The procedures of Examples 31 and 34 were used.

[3] = 33 mg/kg PO [3RX/DAY] for 4 days
[4] = 33 mg/kg PO once a day for 4 days
[5] = 66 mg/kg PO once a day for 4 days
[6] = 10 MPK PO in PEG-200, 1 a day x 4 days
[7] = 25 MPK PO in PEG-200, 1 a day x 4 days
[8] = 50 MPK PO in PEG-200, 1 a day x 4 days
[9] = 100 mg/kg PO once a day for 4 days
[10] = 1 MPK PO in PEG-200, 1 a day x 4 days

SMILES	%SURVIVAL (Aspergillus flavus [1]; [3]) [%]	%ANIMALS NEG (Aspergillus flavus [1]; [3]) [%]	%SURVIVAL (C. albicans C-43; [6]) [%]	CFUs (GM) (C. albicans C-43; 10 MPK PO in PEG-200)	%SURVIVAL (C. albicans C-43; [7]) [%]	CFUs (GM) (C. albicans C-43; 25 MPK PO in PEG-200)	%SURVIVAL (C. albicans C-43; [8]) [%]	CFUs (GM) (C. albicans C-43; 50 MPK PO in PEG-200)	%ANIMALS NEG (Aspergillus flavus [2]; [4]) [%]	%ANIMALS NEG (Aspergillus flavus [2]; [5]) [%]	%SURVIVAL (Aspergillus flavus [2]; [9]) [%]	%ANIMALS NEG (Aspergillus flavus [2]; [9]) [%]	CFU-GEO MEAN OF SURVIVORS (Aspergillus flavus [1]; [3])	CFU-GEO MEAN OF SURVIVORS (Aspergillus flavus [1]; [9])	%SURVIVAL (C. albicans C-43; [10]) [%]	CFUs (GM) (C. albicans C-43; 1 MPK PO in PEG-200)	%SURVIVAL (Aspergillus flavus [2]; [4]) [%]	%SURVIVAL (Aspergillus flavus [2]; [5]) [%]	further results
CCC(C)n1ncn(-c2ccc(N3CCN(c4ccc(OCC5COC(Cn6cncn6)(c6ccc(Cl)cc6Cl)O5)cc4)CC3)cc2)c1=O (stereo not shown) [Itraconazole, reference compound]	10	0	0	9.00	0	9.00	60	6.68	0	0	20	0							%SURVIVAL (Aspergillus flavus [1]; [4]): 0%; %SURVIVAL (Aspergillus flavus [1]; [5]): 0%; PERCENT SURVIVAL AFTER 5 DAYS (5D) (Aspergillus flavus [1]; head prints 50 mg/kg (third dose column, c3), in PEG-200 daily for 4 days, CF-1 mice): 17
CC[C@@H](C)n1ncn(-c2ccc(N3CCN(c4ccc(OC[C@@H]5CO[C@@](Cn6cncn6)(c6ccc(F)cc6F)C5)cc4)CC3)cc2)c1=O [Example 23]	60	10	50	6.78	80	5.90	90	5.62	0	0	70	10	1.08	1.85	10	8.57	10	10	
CC[C@H](C)n1ncn(-c2ccc(N3CCN(c4ccc(OC[C@@H]5CO[C@@](Cn6cncn6)(c6ccc(F)cc6F)C5)cc4)CC3)cc2)c1=O [Example 24, (-)-[(5R)-cis]-4-[4-[4-[4-[[5-(2,4-Difluorophenyl)-5-(1H-1,2,4-triazol-1-ylmethyl)tetrahydrofuran-3-yl]methoxy]phenyl]-1-piperazinyl]phenyl]-2,4-dihydro-2-[(1S)-(1-methylpropyl)]-3H-1,2,4-triazol-3-one]	40	0	40	7.42	100	5.14	100	4.99	0	0	100	20	2.4	1.95	30	7.88	0	50	CFU-GEO MEAN OF SURVIVORS (Aspergillus flavus [1]; [5]): 2.25; oral activity in the Candida systemic model compared with itraconazole (C. albicans C-43; doses of 50, 25 and 10 mpk, each dissolved in PEG-200, result in words): more active orally; oral activity in the Aspergillus pulmonary mouse model (Aspergillus flavus [2]; PO, result in words (active / inactive)): exhibit oral activity; oral activity against Aspergillus flavus pulmonary infections compared with itraconazole, fluconazole and saperconazole (Aspergillus flavus [2]; in vivo mouse model, PO, result in words): more active orally
